Assay results published in US9328138B2 (priority 2011, dated 2016).

Key:
[1] = biological target: T1, HCV genotype 1b (BK) NS3 modified enzyme with a R155K mutation (Hepatitis C virus genotype 1b, UniProt P26663, R1181K); test: HCV NS3 protease time-resolved fluorescence (TRF) assay, genotype 1b R155K; assay type: biochemical; settings: Ki 1b R155K
T1 construct: HCV genotype 1b (BK) NS3 modified enzyme
Outline: (§1)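 Assay buffer: 50 mM HEPES pH 7.5, 150 mM NaCl, 0.1% PEG 8000, 0.15% Triton X-100. Ten-minute enzyme–inhibitor preincubation; substrate at 25 nM final; 6 h reaction, room temperature; signal/background set at 5-20 by enzyme amount.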

[2] = biological target: HCV NS3 protease genotype 3a (3A-1) (Hepatitis C virus genotype 3a, UniProt Q81258); test: HCV NS3 protease time-resolved fluorescence (TRF) assay, genotype 3a; assay type: biochemical; settings: Ki 3a
Outline: as §1

[3] = genotype 1b (BK) NS3 R155K, single value

**Q.** How did the Ki [1, 3] turn out when C=C[C@@H]1C[C@]1(NC(=O)[C@@H]1C[C@@H]2CN1C(=O)[C@H](C(C)(C)C)NC(=O)O[C@@H]1C[C@H]1CCCCCc1c(nc3ccccc3c1OCCCNC1CC1)O2)C(=O)NS(=O)(=O)C1(C)CC1 [Example 183, (1aR,5S,8S,10R,22aR)-5-tert-butyl-17-[3-(cyclopropylamino)propoxy]-N-[(1R,2S)-2-ethenyl-1-{[(1-methylcyclopropyl)sulfonyl]carbamoyl}cyclopropyl]-3,6-dioxo-1,1a,3,4,5,6,9,10, 18,19,20,21,22,22a-tetradeca hydro-8H-7,10-methanocyclopropa[18,19][1,10,3,6] dioxadiazacyclononadecino[11,12-b] quinoline-8-carboxamide] was run?
**A.** 0.07 nM

**Q.** What about the Ki [2] of the same compound?
**A.** 0.95 nM

**Q.** What does the source list for C=C[C@@H]1C[C@]1(NC(=O)[C@@H]1C[C@@H]2CN1C(=O)[C@H](C1CCCCC1)NC(=O)O[C@@H]1C[C@H]1CCCCCc1c(nc3c(OC)cccc3c1OCCN1CCOCC1)O2)C(=O)NS(=O)(=O)C1(C)CC1 [Example 128, (1aR,5S,8S,10R,22aR)-5-cyclohexyl-N-[(1R,2S)-2-ethenyl-1-{[(1-methylcyclopropyl)sulfonyl]carbamoyl}cyclopropyl]-13-methoxy-17-[2-(morpholin-4-yl)ethoxy]-3,6-dioxo-1,1a,3,4,5,6,9, 10,18,19,20,21,22,22a-tetradecahydro-8H-7,10-methanocyclopropa [18,19][1,10,3,6]dioxadiaza cyclononadecino[11,12-b]quinoline-8-carboxamide]?
**A.** Ki [1, 3]: 0.41 nM; Ki [2]: 13 nM

**Q.** With C=C[C@@H]1C[C@]1(NC(=O)[C@@H]1C[C@@H]2CN1C(=O)[C@H](C(C)(C)C)NC(=O)O[C@@H]1CCC[C@H]1CC/C=C/Cc1c(nc3ccccc3c1OCCCN1CCOCC1)O2)C(=O)NS(=O)(=O)C1(C)CC1 [Example 91, (3aR,7S,10S,12R,21E,24aS)-7-tert-butyl-N-[(1R,2S)-2-ethenyl-1-{[(1-methylcyclopropyl)sulfonyl]carbamoyl}cyclopropyl]-19-[3-(morpholin-4-yl)propoxy]-5,8-dioxo-1,2,3,3a,5,6,7,8,11,12,20,23,24,24a-tetradecahydro-10H-9,12-methanocyclopenta[18,19][1,10,3,6] dioxadiazacyclononadecino[11,12-b] quinoline-10-carboxamide] as the compound, how does the Ki [1, 3] read?
**A.** 0.16 nM

**Q.** What about the Ki [2] of the same compound?
**A.** 1 nM

**Q.** Which Ki [1, 3] does the source give for C=C[C@@H]1C[C@]1(NC(=O)[C@@H]1C[C@@H]2CN1C(=O)[C@H](C(C)(C)C)NC(=O)O[C@@H]1C[C@H]1CCCCCc1c(nc3cc(C(C)C)ccc3c1OCCCN1CCOCC1)O2)C(=O)NS(=O)(=O)C1(C)CC1 [Example 161, (1aR,5S,8S,10R,22aR)-5-tert-butyl-N-[(1R,2S)-2-ethenyl-1-{[(1-methylcyclopropyl)sulfonyl]carbamoyl}cyclopropyl]-17-[3-(morpholin-4-yl)propoxy]-3,6-dioxo-14-(propan-2-yl)-1,1a,3,4,5,6,9,10,18,19,20,21,22,22a-tetradecahydro-8H-7,10-methanocyclopropan[18,19] [1,10,3,6]dioxadiazacyclononadecino [11,12-b]quinoline-8-carboxamide] here?
**A.** 0.31 nM

**Q.** And the Ki [2]?
**A.** 2.8 nM

**Q.** Which Ki [1, 3] does the source give for C=C[C@@H]1C[C@]1(NC(=O)[C@@H]1C[C@@H]2CN1C(=O)[C@H](C(C)(C)C)NC(=O)O[C@@H]1CCC[C@H]1CCCCCc1c(nc3ccccc3c1OCCN1CCOCC1)O2)C(=O)NS(=O)(=O)C1(C(C)(C)O)CC1 [Example 108, (3aR,7S,10S,12R,24aR)-7-tert-butyl-N-[(1R,2S)-2-ethenyl-1-({[1-(2-hydroxypropan-2-yl)cyclopropyl]sulfonyl}carbamoyl)cyclopropyl]-19-[2-(morpholin-4-yl)ethoxy]-5,8-dioxo-1,2,3,3a,5,6,7,8,11, 12,20,21,22,23,24,24a-hexadeca hydro-10H-9,12-methanocyclopenta [18,19][1,10,3,6]dioxadiaza-cyclononadecino [11,12-b]quinoline-10-carboxamide] here?
**A.** 0.93 nM

**Q.** What about the Ki [2] of the same compound?
**A.** 23 nM

**Q.** C=C[C@@H]1C[C@]1(NC(=O)[C@@H]1C[C@@H]2CN1C(=O)[C@H](C(C)(C)C)NC(=O)O[C@@H]1CCC[C@H]1CCCCCc1c(nc3ccccc3c1OCCN1CCOCC1)O2)C(=O)NS(=O)(=O)C1CC1 [Example 104, (3aR,7S,10S,12R,24aR)-7-tert-butyl-N-{(1R,2S)-1-[(cyclopropylsulfonyl)carbamoyl]-2-ethenylcyclopropyl}-19-[2-(morpholin-4-yl)ethoxy]-5,8-dioxo-1,2,3,3a,5,6,7,8,11,12,20, 21,22,23,24,24a-hexadecahydro-10H-9,12-methanocyclopenta[18,19] [1,10,3,6]dioxadiaza-cyclononadecino[11,12-b] quinoline-10-carboxamide] was tested. Which Ki [1, 3] did it give?
**A.** 1.3 nM

**Q.** What about the Ki [2] of the same compound?
**A.** 26 nM

**Q.** C=C[C@@H]1C[C@]1(NC(=O)[C@@H]1C[C@@H]2CN1C(=O)[C@H](C(C)(C)C)NC(=O)O[C@@H]1CCC[C@H]1CCCCCc1c(nc3ccccc3c1O)O2)C(=O)NS(=O)(=O)C1(C(=C)C)CC1 [Example 37, (3aR,7S,10S,12R,24aR)-7-tert-butyl-N-[(1R, 2S)-2-ethenyl-1-({[1-(prop-1-en-2-yl)cyclopropyl]sulfonyl}carbamoyl)cyclopropyl]-19-hydroxy-5,8-dioxo-1,2,3,3a,5,6,7,8,11,12,20, 21,22,23,24,24a-hexadecahydro-10H-9,12-methanocyclopenta[18,19][1,10,3,6] dioxadiazacyclononadecino[11,12-b]quinoline-10-carboxamide] was tested. Which Ki [1, 3] did it give?
**A.** 0.16 nM

**Q.** And the Ki [2]?
**A.** 6 nM

**Q.** With C=C[C@@H]1C[C@]1(NC(=O)[C@@H]1C[C@@H]2CN1C(=O)[C@H](C(C)(C)C)NC(=O)O[C@@H]1C[C@H]1CCCCCc1c(nc3ccccc3c1OCCCN1CC3CCC1C3)O2)C(=O)NS(=O)(=O)C1(C)CC1 [Example 196, (1aR,5S,8S,10R,22aR)-17-[3-(2-azabicyclo[2.2.1]hept-2-yl)propxy]-5-tert-butyl-N-[(1R,2S)-2-ethenyl-1-{[(1-methylcyclopropyl)sulfonyl]carbamoyl}cyclopropyl]-3,6-dioxo-1,1a, 3,4,5,7,9,10,18,19,20,21,22,22a-tetradecahydro-8H-7,10-methanocyclopropa[18,19][1,10,3,6] dioxadiazacyclononadecino[11,12-b] quinoline-8-carboxamide] as the compound, how does the Ki [1, 3] read?
**A.** 0.1 nM

**Q.** And the Ki [2]?
**A.** 0.85 nM

**Q.** How did the Ki [1, 3] turn out when C=C[C@@H]1C[C@]1(NC(=O)[C@@H]1C[C@@H]2CN1C(=O)[C@H](C1CCCC1)NC(=O)O[C@@H]1CCC[C@H]1CC/C=C/Cc1c(nc3ccccc3c1O)O2)C(=O)NS(=O)(=O)C1CC1 [Example 17, (3aR,7S,10S,12R,21E,24aS)-7-cyclopentyl-N-{(1R,2S)-1-[(cyclopropylsulfonyl)carbamoyl]-2-ethenylcyclopropyl}-19-hydroxy-5,8-dioxo-1,2,3,3a,5,6,7,8,11,12,20,23,24,24a-tetradecahydro-10H-9,12-methanocyclopenta[18,19][1,10,3,6]dioxadiazacyclononadecino[11,12-b]quinoline-10-carboxamide] was run?
**A.** < 0.016 nM

**Q.** What about the Ki [2] of the same compound?
**A.** 0.45 nM

**Q.** How did the Ki ([1]; first of two values printed in the cell (not explained)) turn out when C=C[C@@H]1C[C@]1(NC(=O)[C@@H]1C[C@@H]2CN1C(=O)[C@H](C(C)(C)C)NC(=O)O[C@@H]1C[C@H]1CCCCCc1c(nc3ccccc3c1OC1CC3CCC(C1)N3CCOC)O2)C(=O)NS(=O)(=O)C1(C)CC1 (single isomer, unassigned) [Example 276] was run?
**A.** 0.013 nM

**Q.** What about the Ki ([1]; second of two values printed in the cell (not explained)) of the same compound?
**A.** 0.019 nM

**Q.** What about the Ki [2] of the same compound?
**A.** 0.14 nM

**Q.** Which results are given for C=CC1C[C@]1(NC(=O)[C@@H]1C[C@@H]2CN1C(=O)[C@H](C1CCCC1)NC(=O)O[C@@H]1CCC[C@H]1CC/C=C/Cc1c(nc3ccccc3c1OCCN1C(=O)CCC1=O)O2)C(=O)NS(=O)(=O)C1CC1 (stereo partly drawn) [Example 76, (3aR,7S,10S,12R,21E,24a)-7-cyclo pentyl-N-{(1R,2S)-1-[(cyclopropylsulfonyl)carbamoyl]-2-ethenylcyclopropyl}-19-[2-(2,5-dioxopyrrolidin-1-yl)ethoxy]-5,8-dioxo-1,2,3,3a,5,6,7,8,11,12,20,23,24,24a-tetradeca hydro-10H-9,12-methanocyclopenta[18,19][1,10,3,6] dioxadiazacyclononadecino[11,12-b] quinoline-10-carboxamide]?
**A.** Ki [1, 3]: 0.09 nM; Ki [2]: 0.71 nM

**Q.** What does the source list for C=C[C@@H]1C[C@]1(NC(=O)[C@@H]1C[C@@H]2CN1C(=O)[C@H](C(C)(C)C)NC(=O)O[C@@H]1C[C@H]1CCCCCc1c(nc3ccccc3c1OC[C@H]1CCN(C(=O)OC(C)(C)C)C1)O2)C(=O)NS(=O)(=O)C1(C)CC1 [Example 137, tert-butyl (3S)-3-({[(1aR,5S,8S,10R,22aR)-5-tert-butyl-8-{[(1R,2S)-2-ethenyl-1-{[(1-methylcyclopropyl)sulfonyl]carbamoyl}cyclopropyl]carbamoyl}-3,6-dioxo-1,1a,3,4,5,6,9,10,18,19,20,21,22,22a-tetradecahydro-8H-7,10-methanocyclopropa[18,19][1,10,3,6]dioxadiazacyclononadecino[11,12-b]quinolin-17-yl]oxy}methyl)pyrrolidine-1-carboxylate]?
**A.** Ki [1, 3]: 0.14 nM; Ki [2]: 1.2 nM

**Q.** For C=C[C@@H]1C[C@]1(NC(=O)[C@@H]1C[C@@H]2CN1C(=O)[C@H](C1CCCC1)NC(=O)O[C@@H]1CCC[C@H]1CC/C=C\Cc1c(nc3ccccc3c1OCC)O2)C(=O)NS(=O)(=O)C1CC1 [Example 3, (3aR,7S,10S,12R,21Z,24aS)-7-cyclopentyl-N-{(1R,2S)-1-[(cyclopropylsulfonyl)carbamoyl]-2-ethenylcyclopropyl}-19-ethoxy-5,8-dioxo-1,2,3,3a, 5,6,7,8,11,12,20,23,24,24a-tetradecahydro-10H-9,12-methanocyclopenta[18,19][1,10,3,6] dioxadiazacyclononadecino[11,12-b] quinoline-10-carboxamide], which Ki [1, 3] is on record?
**A.** 1.4 nM

**Q.** What about the Ki [2] of the same compound?
**A.** 35 nM
